Results taken from patent publication US11547681B2, “N-acylethanolamide derivatives and uses thereof” (ELIEM THERAPEUTICS, INC., priority 2016, dated 2023).

Assay: in vitro
Conditions: for Concentration, analyte PEA / % Remaining of Initial (n = 1) / Measured concentration of PEA (analyte) / % Remaining of Initial: 1 μM
In short: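 Incubations ran at 37° C in S9 with 1 μM test article, started by cofactor cocktail, sampled at 0, 10, 20, 30, 60 min and stopped with cold acidified acetonitrile.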

[1] = male, CD-1, mouse, s9, Half-life
[2] = male, Sprague-Dawley, rat, 0 min
[3] = male, Sprague-Dawley, rat, 10 min
[4] = male, Sprague-Dawley, rat, 20 min
[5] = male, Sprague-Dawley, rat, 30 min
[6] = male, Sprague-Dawley, rat, 60 min
[7] = male, Sprague-Dawley, rat, s9, 0 h
[8] = male, Sprague-Dawley, rat, s9, 10 min
[9] = male, Sprague-Dawley, rat, s9, 20 min
[10] = male, Sprague-Dawley, rat, s9, 0.5 h
[11] = male, Sprague-Dawley, rat, s9, 1 h
[12] = male, Sprague-Dawley, rat, s9, Half-life

In the case of CCCCC/C=C\C/C=C\CCCCCCCC(=O)OCC(COC(=O)CCC(=O)OCCNC(=O)CCCCCCCCCCCCCCC)OC(=O)CCCCCCC/C=C\C/C=C\CCCCC (centres unmarked) [Compound I-13], the “Concentration, analyte PEA” value (both, human, 0 min) is reported as 0 nM, the “Concentration, analyte PEA” value (both, human, 10 min) is reported as 0 nM and the “Concentration, analyte PEA” value (both, human, 20 min) is reported as 0 nM. The “Concentration, analyte PEA” value (both, human, 30 min) was 0 nM, the “Concentration, analyte PEA” value (both, human, 60 min) was 0 nM and the “% Remaining of Initial (n = 1)” value (both, human, s9, 0 h) was 100%. The “% Remaining of Initial (n = 1)” value (both, human, s9, 10 min) was 93%, the “% Remaining of Initial (n = 1)” value (both, human, s9, 20 min) was 87% and the “% Remaining of Initial (n = 1)” value (both, human, s9, 0.5 h) was 78%. For the same compound, the “% Remaining of Initial (n = 1)” value (both, human, s9, 1 h) was 45%, the half-life at 1 μM (both, human, s9, Half-life) was 58 min and the “Concentration, analyte PEA” value (male, Beagle, dog, 0 min) was 15 nM. For the same compound, the “Concentration, analyte PEA” value (male, Beagle, dog, 10 min) was 25 nM, the “Concentration, analyte PEA” value (male, Beagle, dog, 20 min) was 20 nM and the “Concentration, analyte PEA” value (male, Beagle, dog, 30 min) was 24 nM. The “Concentration, analyte PEA” value (male, Beagle, dog, 60 min) was 21 nM, the “% Remaining of Initial (n = 1)” value (male, Beagle, dog, s9, 0 h) was 100% and the “% Remaining of Initial (n = 1)” value (male, Beagle, dog, s9, 10 min) was 70%. For the same compound, the “% Remaining of Initial (n = 1)” value (male, Beagle, dog, s9, 20 min) was 61%, the “% Remaining of Initial (n = 1)” value (male, Beagle, dog, s9, 0.5 h) was 61% and the “% Remaining of Initial (n = 1)” value (male, Beagle, dog, s9, 1 h) was 37%. The “Concentration, analyte PEA” value (male, CD-1, mouse, 0 min) was 0 nM, the “Concentration, analyte PEA” value (male, CD-1, mouse, 10 min) was 0 nM and the “Concentration, analyte PEA” value (male, CD-1, mouse, 20 min) was 0 nM. For the same compound, the “Concentration, analyte PEA” value (male, CD-1, mouse, 30 min) was 0 nM, the “Concentration, analyte PEA” value (male, CD-1, mouse, 60 min) was 0 nM and the “% Remaining of Initial (n = 1)” value (male, CD-1, mouse, s9, 0 h) was 100%. The “% Remaining of Initial (n = 1)” value (male, CD-1, mouse, s9, 10 min) was 89%, the “% Remaining of Initial (n = 1)” value (male, CD-1, mouse, s9, 20 min) was 90% and the “% Remaining of Initial (n = 1)” value (male, CD-1, mouse, s9, 0.5 h) was 79%. The “% Remaining of Initial (n = 1)” value (male, CD-1, mouse, s9, 1 h) was 78%, the half-life at 1 μM [1] was greater than 60 min and the “Concentration, analyte PEA” value [2] was 0 nM. The “Concentration, analyte PEA” value [3] was 0 nM, the “Concentration, analyte PEA” value [4] was 0 nM and the “Concentration, analyte PEA” value [5] was 0 nM. The “Concentration, analyte PEA” value [6] was 0 nM, the “% Remaining of Initial (n = 1)” value [7] was 100% and the “% Remaining of Initial (n = 1)” value [8] was 76%. For the same compound, the “% Remaining of Initial (n = 1)” value [9] was 74%, the “% Remaining of Initial (n = 1)” value [10] was 59% and the “% Remaining of Initial (n = 1)” value [11] was 45%. For the same compound, the half-life at 1 μM [12] was 50 min.
For CCCCCCCCCCCCCCCC(=O)NCCOC(=O)CCC(=O)OC(COC(=O)CCC)COC(=O)CCC [Compound I-16], the “Measured concentration of PEA (analyte)” value (both, human, 0 min) was 0.10 µM, the “Measured concentration of PEA (analyte)” value (both, human, 10 min) was 0.46 µM and the “Measured concentration of PEA (analyte)” value (both, human, 20 min) was 0.42 µM. For the same compound, the “Measured concentration of PEA (analyte)” value (both, human, 30 min) was 0.39 µM, the “Measured concentration of PEA (analyte)” value (both, human, 60 min) was 0.27 µM and the “% Remaining of Initial” value (both, human, s9, 0 h) was 100%. The “% Remaining of Initial” value (both, human, s9, 10 min) was 4.9%, the “% Remaining of Initial” value (both, human, s9, 20 min) was 2.1% and the “% Remaining of Initial” value (both, human, s9, 0.5 h) was less than 1.0%. The “% Remaining of Initial” value (both, human, s9, 1 h) was less than 1.0%, the half-life at 1 μM (both, human, s9, Half-life) was less than 10 min and the “Measured concentration of PEA (analyte)” value (male, Beagle, dog, 0 min) was 0.053 µM. The “Measured concentration of PEA (analyte)” value (male, Beagle, dog, 10 min) was 0.26 µM, the “Measured concentration of PEA (analyte)” value (male, Beagle, dog, 20 min) was 0.33 µM and the “Measured concentration of PEA (analyte)” value (male, Beagle, dog, 30 min) was 0.29 µM. For the same compound, the “Measured concentration of PEA (analyte)” value (male, Beagle, dog, 60 min) was 0.23 µM, the “% Remaining of Initial” value (male, Beagle, dog, s9, 0 h) was 100% and the “% Remaining of Initial” value (male, Beagle, dog, s9, 10 min) was 2.1%. The “% Remaining of Initial” value (male, Beagle, dog, s9, 20 min) was less than 1.0%, the “% Remaining of Initial” value (male, Beagle, dog, s9, 0.5 h) was less than 1.0% and the “% Remaining of Initial” value (male, Beagle, dog, s9, 1 h) was less than 1.0%. For the same compound, the half-life at 1 μM (male, Beagle, dog, s9, Half-life) was less than 10 min, the “Measured concentration of PEA (analyte)” value (male, CD-1, mouse, 0 min) was 0.33 µM and the “Measured concentration of PEA (analyte)” value (male, CD-1, mouse, 10 min) was 0.78 µM. For the same compound, the “Measured concentration of PEA (analyte)” value (male, CD-1, mouse, 20 min) was 0.68 µM, the “Measured concentration of PEA (analyte)” value (male, CD-1, mouse, 30 min) was 0.59 µM and the “Measured concentration of PEA (analyte)” value (male, CD-1, mouse, 60 min) was 0.43 µM. The “% Remaining of Initial” value (male, CD-1, mouse, s9, 0 h) was 100%, the “% Remaining of Initial” value (male, CD-1, mouse, s9, 10 min) was 3.7% and the “% Remaining of Initial” value (male, CD-1, mouse, s9, 20 min) was less than 1.0%. For the same compound, the “% Remaining of Initial” value (male, CD-1, mouse, s9, 0.5 h) was less than 1.0%, the “% Remaining of Initial” value (male, CD-1, mouse, s9, 1 h) was less than 1.0% and the half-life at 1 μM [1] was less than 10 min. The “Measured concentration of PEA (analyte)” value [2] was 0.050 µM, the “Measured concentration of PEA (analyte)” value [3] was 0.13 µM and the “Measured concentration of PEA (analyte)” value [4] was 0.13 µM. The “Measured concentration of PEA (analyte)” value [5] was 0.058 µM, the “Measured concentration of PEA (analyte)” value [6] was 0.020 µM and the “% Remaining of Initial” value [7] was 100%. The “% Remaining of Initial” value [8] was 3.0%, the “% Remaining of Initial” value [9] was less than 1.0% and the “% Remaining of Initial” value [10] was less than 1.0%. For the same compound, the “% Remaining of Initial” value [11] was less than 1.0%, the half-life at 1 μM [12] was less than 10 min and the half-life at 1 μM (male, Sprague-Dawley, rat, s9, Half-life, calculated value in parentheses) was 2 min.
C[C@]12CC[C@H]3[C@@H](CCC4=CC(=O)CC[C@@]43C)[C@@H]1CC[C@@H]2O [Testosterone, testosterone, reference compound] gave a Half-life (Control Compound, Human liver S9) of 28 min, a Half-life (Control Compound, Mouse liver S9) of 9.0 min and a CLint (Control Compound, Rat liver S9) of 0.260 ml/min/mg protein. The Half-life (Human liver S9) was 28 min, the half-life (male, Beagle, s9) was 25 min and the Half-life (male, CD-1, mouse, s9) was 17 min. For the same compound, the half-life (male, CD-1, mouse, s9) was 8.7 min, the half-life (male, Sprague-Dawley, rat, s9, Half-life, Control Compound, Rat liver S9) was 2.7 min and the half-life at 1 μM (male, Sprague-Dawley, rat, s9, Half-life, Rat liver S9) was 2.7 min. For the same compound, the half-life (male, Sprague-Dawley, rat, s9, Half-life, control compound, rat liver S9) was 2.7 min.
